# Reference: article PMC8400955 (Pharmaceuticals, 2021)
# Columns and labels:
# [1] = Plasma protein binding by equilibrium dialysis, dog; format: in vitro ADME; details: plasma (EDTA-K2 as anticoagulant)
# Experimental: (§1) The in vitro binding of ZB716 to plasma proteins was determined by equilibrium dialysis technique in mouse, rat, dog, monkey, and human plasma (EDTA-K2 as anticoagulant), over the concentration range of 0.1–10 μM. The free concentration of ZB716 was below the lower limit of quantitation at 0.1, 1, and 10 μM in human, monkey, dog, rat, and mouse plasma.
# (§2) The equilibrium dialysis method was used to investigate the in vitro binding of ZB716 to human, monkey, dog, rat, and mouse plasma proteins. The dialysis phosphate buffer solution (100 mM, pH 7.4) and plasma samples containing 0.1, 1, and 10 μM of ZB716 were added to separate chambers of dialysis wells of the HTDialysis device. The dialysis plate was placed in an incubator at 37 °C with 5% CO2 at approximately 100 rpm for 6 h. After incubation, the seal was removed, and 50 μL each of post-dialysis samples was pipetted from both the buffer and plasma chambers into fresh 96-well plates. The samples were analyzed via UPLC–MS/MS. The bound fraction, unbound fraction, recovery (%), and remaining (%) were calculated by Equations (2)–(5):%Unbound = (Conc.buffer chamber/Conc.plasma chamber) × 100(2) %Bound = 100% − %Unbound (3) %Recovery = (Conc.buffer chamber + Conc.plasma chamber)/Conc.Total sample × 100 (4) %Remaining = Conc.6h/Conc.0h × 100 (5)
# dog plasma proteins = experiment: as above; format: in vitro ADME; details: for Remaining: 6 h
# Experimental: as §1, §2
# CYP2A6 = CYP2A6 (Homo sapiens, UniProt P11509); experiment: CYP phenotyping, recombinant CYP2A6
# Chain of CYP2A6 (P11509 whole entry): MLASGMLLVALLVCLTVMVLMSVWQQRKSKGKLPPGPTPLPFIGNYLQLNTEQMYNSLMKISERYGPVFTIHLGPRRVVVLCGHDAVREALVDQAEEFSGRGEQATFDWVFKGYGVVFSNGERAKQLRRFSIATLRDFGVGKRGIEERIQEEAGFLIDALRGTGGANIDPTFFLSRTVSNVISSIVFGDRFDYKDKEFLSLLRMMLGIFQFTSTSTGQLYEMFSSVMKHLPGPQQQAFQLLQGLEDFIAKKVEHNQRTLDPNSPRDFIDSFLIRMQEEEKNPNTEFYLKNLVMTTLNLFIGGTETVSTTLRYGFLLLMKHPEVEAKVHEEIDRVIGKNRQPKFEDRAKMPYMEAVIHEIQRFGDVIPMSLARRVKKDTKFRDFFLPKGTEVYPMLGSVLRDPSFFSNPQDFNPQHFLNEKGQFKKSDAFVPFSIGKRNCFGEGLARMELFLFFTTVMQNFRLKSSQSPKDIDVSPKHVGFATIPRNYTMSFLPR
# Experimental: (§3) Bactosomes prepared from E. coli that heterologously expressed individual human CYP isoforms together with human CYP reductase were obtained from CYPEX LTD (Scotland, UK), and stored at −80 °C prior to use. […] Timepoints were taken at 0, 5, 10, 15, 20, and 30 min. Substrate disappearance was used to calculate intrinsic clearance (Clint) and half-life (t1/2). All incubations were performed in triplicate. […] The chemical inhibitors for CYP1A2, 2A6, 2B6, 2C8, 2C9, 2C19, 2D6, and 3A4 were furafylline, tranylcypromine, ticlopidine, montelukast, sulfaphenazole, N-3-benzylnirvanol, quinidine, and ketoconazole, respectively. Timepoints were collected at 0, 15, 30, 45, and 60 min, and the remaining percentage of the parent drug at each timepoint was calculated (the calculation details are available in the Supplementary Materials). All incubations were performed in triplicate.
# (§4) 1.3.1 Intrinsic Clearance (Heterologously Expressed Human Cytochrome P450) All calculations were carried out using Microsoft Excel. The slope, k, was determined by linear regression of the natural logarithm of percent parent disappearance vs. incubation time curve. Peak areas for test article and internal standard were determined from extracted ion chromatograms. The peak area ratio was used to calculated for the results.
# (§5) The half-life value (t1/2 rCYPi) was determined from the slope value: […]
# CYP2C19 = CYP2C19 (Homo sapiens, UniProt P33261); experiment: CYP phenotyping, recombinant CYP2C19
# Chain of CYP2C19 (P33261 whole entry): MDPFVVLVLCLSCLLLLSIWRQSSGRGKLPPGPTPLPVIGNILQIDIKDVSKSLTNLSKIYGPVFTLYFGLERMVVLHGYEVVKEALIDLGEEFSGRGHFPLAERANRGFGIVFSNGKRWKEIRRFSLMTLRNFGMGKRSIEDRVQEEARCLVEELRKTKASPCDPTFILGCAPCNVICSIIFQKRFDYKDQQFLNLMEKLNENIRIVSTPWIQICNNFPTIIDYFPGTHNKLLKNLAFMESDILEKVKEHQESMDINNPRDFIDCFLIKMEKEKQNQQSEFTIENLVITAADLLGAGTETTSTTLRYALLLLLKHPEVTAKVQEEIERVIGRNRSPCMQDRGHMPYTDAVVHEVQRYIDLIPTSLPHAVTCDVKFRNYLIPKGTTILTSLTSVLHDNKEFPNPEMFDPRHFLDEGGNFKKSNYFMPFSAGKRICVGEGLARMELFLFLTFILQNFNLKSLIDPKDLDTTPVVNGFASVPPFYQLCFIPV
# Experimental: as §3, §4, §5
# CYP2C8 = biological target: T1, CYP2C8 (Homo sapiens, UniProt P10632); experiment: CYP inhibition in human liver microsomes, CYP2C8; format: in vitro ADME; details: HLM, marker substrate Amodiaquine
# T1 sequence (P10632 1-490): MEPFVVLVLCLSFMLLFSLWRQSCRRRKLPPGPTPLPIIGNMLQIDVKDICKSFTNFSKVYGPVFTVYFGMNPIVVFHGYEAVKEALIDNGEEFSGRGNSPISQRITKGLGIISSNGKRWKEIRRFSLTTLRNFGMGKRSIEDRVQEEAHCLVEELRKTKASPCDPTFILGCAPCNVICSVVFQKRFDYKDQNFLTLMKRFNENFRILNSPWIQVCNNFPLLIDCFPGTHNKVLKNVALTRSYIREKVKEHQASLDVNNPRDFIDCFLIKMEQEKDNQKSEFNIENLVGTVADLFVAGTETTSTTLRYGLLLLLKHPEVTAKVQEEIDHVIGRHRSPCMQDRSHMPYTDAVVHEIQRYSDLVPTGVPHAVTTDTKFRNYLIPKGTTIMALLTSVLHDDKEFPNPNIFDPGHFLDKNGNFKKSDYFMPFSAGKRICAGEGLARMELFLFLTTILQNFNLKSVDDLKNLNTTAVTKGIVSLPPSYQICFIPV
# Experimental: . The inhibition of CYP2B6 and 3A4 (when midazolam was used as the substrate) by ZB716 was not observed. The inhibitory potential of ZB716 on human CYP enzyme activities appears relatively low.
# The final concentrations of ZB716 in the incubation system were 0, 0.05, 0.15, 0.5, 1.5, 5, and 15 µM (final organic solvent concentration ≤ 1%). […] . […] The concentrations of the isoform-specific metabolites derived from marker substrates were measured by UPLC–MS/MS. The IC50 values were calculated from the percentages of the rate of the metabolite formation relative to non-inhibited controls vs. the concentrations of ZB716 or positive control inhibitors. All incubations were performed in triplicate. The mean of the enzyme activity (% of non-inhibited control) for each concentration was plotted against the log inhibitor concentration, and fitted to an IC50 curve.
smiles,measurement,setting,value
"C[C@]12CC[C@@H]3c4ccc(B(O)O)cc4C[C@@H](CCCCCCCCC[S+]([O-])CCCC(F)(F)C(F)(F)F)[C@H]3[C@@H]1CC[C@@H]2O (stereo partly shown) [ZB716, fulvestrant-3-boronic acid]","recovery at 6 h, 0.1 μM","[1]; pH 7.4, 0.1 μM",< 63.5%
same,"recovery at 6 h, 1 μM","[1]; pH 7.4, 1 μM",< 64.9%
same,"recovery at 6 h, 10 μM","[1]; pH 7.4, 10 μM",< 68.7%
same,Bound,dog plasma proteins; 0.1 μM,>95.6%
same,Remaining,dog plasma proteins; 0.1 μM,39.1 ± 1.8%
same,Bound,dog plasma proteins; 1 μM,>99.6%
same,Unbound,dog plasma proteins; 1 μM,<0.373%
same,Remaining,dog plasma proteins; 1 μM,53.2 ± 4.4%
same,Bound,dog plasma proteins; 10 μM,>99.96%
same,Unbound,dog plasma proteins; 10 μM,<0.0412%
same,Remaining,dog plasma proteins; 10 μM,65.2 ± 4.3%
same,half-life at 2 µM,CYP2A6; human,16.6 ± 0.6 min
same,Clint,"CYP2A6; recombinant CYP2A6, 2 µM ZB716",0.836 ± 0.028 µL/min/pmol CYP
same,half-life at 2 µM,CYP2C19; human,21.6 ± 2 min
same,Clint,"CYP2C19; recombinant CYP2C19, 2 µM ZB716",0.646 ± 0.063 µL/min/pmol CYP
same,IC50,CYP2C8,6.27 µM
